Data from patent publication US20220107317A1, “COMPOSITIONS AND METHODS FOR DIAGNOSING AND TREATING CORONAVIRUS DISEASE 2019” (priority 2020, published 2022).

Molecular target: SARS-CoV-2 spike protein RBD (Severe acute respiratory syndrome coronavirus 2, UniProt P0DTC2)
Settings: spike protein RBD and dimer of spike protein RBD, FIG. 4

Sequence: DLSGFVRPDPVIISSPLSTFFSDAGYKSLLKITMTQSTVPLNLIRVHLMVAVEG HLFQKSFQASPNLAYTFIWDKTDAYGQRVYGLSDAVVSVGFEYETCPSLILW EKRTALLQGFELD [T2 peptide]
- binding in Western blot: binding between T2 peptide to both spike protein RBD and the dimer of spike protein RBD
